# PMC7180739, “Aggregation and Molecular Properties of β-Glucosidase Isoform II in Chayote (Sechium edule)” (Molecules, 2020)
# Test system: T1, β-glucosidase isoform II (β-glucosidase II, Sebg)
# T1 construct: native, purified from fruit epicarp and mesocarp
# Assay: p-nitrophenol release, nonlinear regression
# Format: biochemical, Sechium edule
# Conditions: 40 °C, 0.2 M sodium citrate pH 5.0 (pH 5.5)
# Source text: p-nitrophenol release, nonlinear regression on β-glucosidase isoform II (β-glucosidase II, Sebg)
row,Km [mM],Compound
1,16.1 ± 2.62,"C[C@H]1O[C@@H](Oc2ccc([N+](=O)[O-])cc2)[C@H](O)[C@@H](O)[C@H]1O [pNPFuc, p-Nitrophenyl-β-D-fucopyranoside]"
2,5.72 ± 0.45,"O=[N+]([O-])c1ccc(O[C@@H]2O[C@H](CO)[C@H](O)[C@H](O)[C@H]2O)cc1 [pNPGal, p-Nitrophenyl-β-D-galactopyranoside]"
3,4.59 ± 0.49,"O=[N+]([O-])c1ccc(O[C@@H]2O[C@H](CO)[C@@H](O)[C@H](O)[C@H]2O)cc1 [pNPGlc, p-Nitrophenyl-β-D-glucopyranoside]"
